Experimental data as given in patent publication US8653087B2, “Pyrido [5, 4-D] pyrimidines as cell proliferation inhibitors” (Boehringer Ingelheim International GmbH, priority 2008, dated 2014).

biological target: B-Raf (V600E)-kinase (Homo sapiens (Human), UniProt P15056, V600E); assay: Kinase test B-RAF (V600E); type: biochemical; details: B-RAF (V600E) kinase test, 250 μM ATP
Protocol: Kinase Test B-RAF (V600E)
In a dilution series 10 μL of test substance solution are placed in a multiwell plate. The dilution series is selected so that generally a range of concentrations of 2 μM to 0.119 nM or 0.017 nM is covered. If necessary the initial concentration of 2 μM is changed to 50 μM, 10 μM or 0.4 μM or 0.2857 μM and further dilution is carried out accordingly. The final concentration of DMSO is 5%. 10 μL of the B-Raf (V600E)-kinase solution are pipetted in (containing 0.5 ng B-Raf (V600E)-kinase in 20 mM Tris-HCl pH 7.5, 0.1 mM EDTA, 0.1 mM EGTA, 0.286 mM sodium orthovanadate, 10% glycerol, 1 mg/mL bovine serum albumin, 1 mM dithiothreitol) and the mixture is incubated for 24 h at RT under with shaking. The kinase reaction is started by the addition of 20 μL ATP solution [final concentration: 250 μM ATP, 30 mM Tris-HCl pH 7.5, 0.02% Brij, 0.2 mM sodium orthovanadate, 10 mM magnesium acetate, 0.1 mM EGTA, phosphatase cocktail (Sigma, # P2850, dilution recommended by the manufacturer), 0.1 mM EGTA] and 10 μL MEK1 solution [containing 50 ng biotinylated MEK1 (prepared from purified MEK1 according to standard procedure, e.g. with EZ-Link Sulpho-NHS-LC-Biotin reagent, Pierce, #21335) and carried out for 60 min at RT with constant shaking. The reaction is stopped by the addition of 12 μL of a 100 mM EDTA solution and incubation is continued for a further 5 min. 55 μL of the reaction solution are transferred into a streptavidin-coated plate (e.g. Streptawell HighBond, Roche, #11989685001) and shaken gently for 1 h at RT, in order to bind biotinylated MEK1 to the plate. After elimination of the liquid the plate is washed five times with 200 μL of 1×PBS and 100 μL solution of primary antibody plus europium-labelled secondary antibody [Anti Phospho-MEK (Ser217/221), Cell Signaling, #9121 and Eu-N1 labeled goat-anti-rabbit antibody, Perkin Elmer, # AD0105], the primary antibody is diluted 1:2000 and the secondary antibody is diluted to 0.4-0.5 μg/mL in Delfia Assay Buffer (Perkin Elmer, #1244-111). After 1 h shaking at RT the solution is poured away and washed five times with 200 μL Delfia Wash Buffer (Perkin Elmer, #4010-0010/#1244-114). After the addition of 200 μL Enhancement Solution (Perkin Elmer, #4001-0010/#1244-105) the mixture is shaken for 10 min at RT and then measured in a Wallac Victor using the program “Delfia Time Resolved Fluorescence (Europium)”. IC50 values are obtained from these dosage-activity curves using a software program (GraphPadPrizm).

Chain of B-Raf (V600E)-kinase (P15056 whole entry V600E): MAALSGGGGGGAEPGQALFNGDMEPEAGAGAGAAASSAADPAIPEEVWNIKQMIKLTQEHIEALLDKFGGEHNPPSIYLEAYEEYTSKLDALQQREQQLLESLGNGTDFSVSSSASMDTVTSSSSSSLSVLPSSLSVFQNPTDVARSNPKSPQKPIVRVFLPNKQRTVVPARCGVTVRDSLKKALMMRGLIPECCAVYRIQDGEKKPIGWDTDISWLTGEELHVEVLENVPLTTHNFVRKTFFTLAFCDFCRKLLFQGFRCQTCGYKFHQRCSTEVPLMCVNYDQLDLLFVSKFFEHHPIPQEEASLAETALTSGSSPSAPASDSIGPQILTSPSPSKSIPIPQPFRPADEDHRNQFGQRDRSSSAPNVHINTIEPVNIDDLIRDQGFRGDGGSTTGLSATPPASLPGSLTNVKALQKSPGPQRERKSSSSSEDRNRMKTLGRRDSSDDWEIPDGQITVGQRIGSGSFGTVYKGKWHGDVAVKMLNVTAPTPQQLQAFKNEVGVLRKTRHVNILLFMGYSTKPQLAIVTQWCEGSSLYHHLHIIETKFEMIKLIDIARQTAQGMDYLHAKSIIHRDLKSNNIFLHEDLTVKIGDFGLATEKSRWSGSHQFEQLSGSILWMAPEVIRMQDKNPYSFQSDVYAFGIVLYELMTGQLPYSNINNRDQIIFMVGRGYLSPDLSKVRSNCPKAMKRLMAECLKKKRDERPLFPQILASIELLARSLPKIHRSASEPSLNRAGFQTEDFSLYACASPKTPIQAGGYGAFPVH

Row | Compound | IC50 [nM]
1 | COc1ccc(NC(=O)c2ccc(C)c(Nc3ncnc4c(N)nc(N5CCN(C)CC5)nc34)c2)cc1C(F)(F)F [I-1] | 26
2 | Cc1ccc(C(=O)Nc2cc(Br)cc(C(F)(F)F)c2)cc1Nc1ncnc2c(N)nc(N3CCN(C)CC3)nc12 [I-2] | 9
3 | Cc1ccc(C(=O)Nc2ccc(C(F)(F)F)cc2)cc1Nc1ncnc2c(N)nc(N3CCCN(C)CC3)nc12 [I-3] | 9
4 | Cc1ccc(C(=O)Nc2ccc(C(F)(F)F)cc2)cc1Nc1ncnc2c(N)nc(N3CCNCC3)nc12 [I-4] | 7
5 | Cc1ccc(C(=O)Nc2ccc(C(F)(F)F)cc2)cc1Nc1ncnc2c(N)nc(N3CCN(C)CC3)nc12 [I-5] | 5
6 | Cc1ccc(C(=O)Nc2ccc(C(F)(F)F)cc2)cc1Nc1ncnc2c(N)nc(NCCN(C)C)nc12 [I-6] | 68
7 | Cc1ccc(C(=O)Nc2cc(C(C)(C)C)on2)cc1Nc1ncnc2c(N)nc(N3CCN(C)CC3)nc12 [I-9] | 3
8 | Cc1ccc(C(=O)Nc2cc(C(C)(C)C)n[nH]2)cc1Nc1ncnc2c(N)nc(N3CCN(CC4CCN(C)CC4)CC3)nc12 [I-13] | 4
9 | Cc1ccc(C(=O)Nc2cc(C(C)(C)C)n[nH]2)cc1Nc1ncnc2c(N)nc(N3CCCN(C)CC3)nc12 [I-14] | 3
10 | Cc1ccc(C(=O)Nc2cc(C(C)(C)C)n[nH]2)cc1Nc1ncnc2c(N)nc(N3CCN(C)CC3)nc12 [I-18] | 3
11 | CN1CCN(c2nc(N)c3ncnc(Nc4cccc(C(=O)Nc5cccc(C(F)(F)F)c5)c4)c3n2)CC1 [I-19] | 57
12 | CN1CCCN(c2nc(N)c3ncnc(Nc4cccc(C(=O)Nc5cccc(C(F)(F)F)c5)c4)c3n2)CC1 [I-20] | 50
13 | CN1CCC(N2CCN(c3nc(N)c4ncnc(Nc5cccc(C(=O)Nc6cccc(C(F)(F)F)c6)c5)c4n3)CC2)CC1 [I-21] | 22
14 | CN1CCC(CN2CCN(c3nc(N)c4ncnc(Nc5cccc(C(=O)Nc6cccc(C(F)(F)F)c6)c5)c4n3)CC2)CC1 [I-22] | 13
15 | CN1CCN(c2nc(N)c3ncnc(Nc4cc(C(=O)Nc5cccc(C(F)(F)F)c5)ccc4Cl)c3n2)CC1 [I-23] | 14
16 | CN1CCCN(c2nc(N)c3ncnc(Nc4cc(C(=O)Nc5cccc(C(F)(F)F)c5)ccc4Cl)c3n2)CC1 [I-24] | 9
17 | CN1CCC(N2CCN(c3nc(N)c4ncnc(Nc5cc(C(=O)Nc6cccc(C(F)(F)F)c6)ccc5Cl)c4n3)CC2)CC1 [I-25] | 3
18 | CN1CCN(c2nc(N)c3ncnc(Nc4cc(C(=O)Nc5cccc(C(F)(F)F)c5)ccc4Br)c3n2)CC1 [I-26] | 70

Row | Compound | IC50 [nM]
19 | CN1CCCN(c2nc(N)c3ncnc(Nc4cc(C(=O)Nc5cccc(C(F)(F)F)c5)ccc4Br)c3n2)CC1 [I-27] | 83
20 | CN1CCC(N2CCN(c3nc(N)c4ncnc(Nc5cc(C(=O)Nc6cccc(C(F)(F)F)c6)ccc5Br)c4n3)CC2)CC1 [I-28] | 13
21 | CN1CCC(CN2CCN(c3nc(N)c4ncnc(Nc5cc(C(=O)Nc6cccc(C(F)(F)F)c6)ccc5Br)c4n3)CC2)CC1 [I-29] | 15
22 | COc1ccc(C(=O)Nc2cccc(C(F)(F)F)c2)cc1Nc1ncnc2c(N)nc(N3CCN(C)CC3)nc12 [I-30] | 35
23 | COc1ccc(C(=O)Nc2cccc(C(F)(F)F)c2)cc1Nc1ncnc2c(N)nc(N3CCCN(C)CC3)nc12 [I-31] | 58
24 | COc1ccc(C(=O)Nc2cccc(C(F)(F)F)c2)cc1Nc1ncnc2c(N)nc(N3CCN(C4CCN(C)CC4)CC3)nc12 [I-32] | 14
25 | COc1ccc(C(=O)Nc2cccc(C(F)(F)F)c2)cc1Nc1ncnc2c(N)nc(N3CCN(CC4CCN(C)CC4)CC3)nc12 [I-33] | 12
26 | Cc1ccc(C(=O)Nc2cc(C(C)(C)C)n[nH]2)cc1Nc1ncnc2c(N)nc(N3C[C@H]4C[C@@H]3CN4C)nc12 [I-36] | 4
27 | Cc1ccc(C(=O)Nc2cc(C(C)(C)C)n[nH]2)cc1Nc1ncnc2c(N)nc(N3CCN(CC(C)C)CC3)nc12 [I-37] | 4
28 | Cc1ccc(C(=O)Nc2cc(C(C)(C)C)n[nH]2)cc1Nc1ncnc2c(N)nc(N3CCN(CC4CCCO4)CC3)nc12 (stereo not shown) [I-38] | 6
29 | Cc1ccc(C(=O)Nc2cc(C(C)(C)C)n[nH]2)cc1Nc1ncnc2c(N)nc(N3CCN(C4CCCC4)CC3)nc12 [I-39] | 5
30 | Cc1ccc(C(=O)Nc2cc(C(C)(C)C)n[nH]2)cc1Nc1ncnc2c(N)nc(N3CCN(CC4CCCN(C)C4)CC3)nc12 (stereo not shown) [I-40] | 3
31 | COCCN1CCN(c2nc(N)c3ncnc(Nc4cc(C(=O)Nc5cc(C(C)(C)C)n[nH]5)ccc4C)c3n2)CC1 [I-41] | 5
32 | Cc1ccc(C(=O)Nc2cc(C(C)(C)C)n[nH]2)cc1Nc1ncnc2c(N)nc(N3CCN(C4CC4)CC3)nc12 [I-42] | 9
33 | Cc1ccc(C(=O)Nc2cc(C(C)(C)C)n[nH]2)cc1Nc1ncnc2c(N)nc(N3CCN4CCCCC4C3)nc12 (stereo not shown) [I-43] | 4
34 | Cc1ccc(C(=O)Nc2cc(C(C)(C)C)n[nH]2)cc1Nc1ncnc2c(N)nc(N3CCC(N4CCN(C)CC4)CC3)nc12 [I-52] | 55
35 | COc1ccc(C(C)(C)C)cc1NC(=O)c1ccc(C)c(Nc2ncnc3c(N)nc(N4CCN(C)CC4)nc23)c1 [I-53] | 21
36 | COc1cc(NC(=O)c2ccc(C)c(Nc3ncnc4c(N)nc(N5CCN(C)CC5)nc34)c2)cc(C(F)(F)F)c1 [I-54] | 5

Further lines, results first:

Row | IC50 [nM] | Compound
37 | 3 | Cc1ccc(C(=O)Nc2ccc(C(F)(F)F)cc2)cc1Nc1ncnc2c(N)nc(N3CCN(C4CCN(C)CC4)CC3)nc12 [I-7]
38 | 2 | Cc1ccc(C(=O)Nc2ccc(C(F)(F)F)cc2)cc1Nc1ncnc2c(N)nc(N3CCN(CC4CCN(C)CC4)CC3)nc12 [I-8]
39 | 1 | Cc1ccc(C(=O)Nc2cc(C(C)(C)C)on2)cc1Nc1ncnc2c(N)nc(N3CCN(C4CCN(C)CC4)CC3)nc12 [I-10]
40 | 1 | Cc1ccc(C(=O)Nc2cc(C(C)(C)C)on2)cc1Nc1ncnc2c(N)nc(N3CCCN(C)CC3)nc12 [I-11]
41 | 2 | Cc1ccc(C(=O)Nc2cc(C(C)(C)C)n[nH]2)cc1Nc1ncnc2c(N)nc(N3CCN(C4CCN(C)CC4)CC3)nc12 [I-12]
42 | 1 | COc1ccc(NC(=O)c2ccc(C)c(Nc3ncnc4c(N)nc(N5CCN(C6CCN(C)CC6)CC5)nc34)c2)cc1C(F)(F)F [I-15]
43 | 1 | COc1ccc(NC(=O)c2ccc(C)c(Nc3ncnc4c(N)nc(N5CCN(CC6CCN(C)CC6)CC5)nc34)c2)cc1C(F)(F)F [I-16]
44 | 1 | COc1ccc(NC(=O)c2ccc(C)c(Nc3ncnc4c(N)nc(N5CCCN(C)CC5)nc34)c2)cc1C(F)(F)F [I-17]
45 | 2 | Cc1ccc(C(=O)Nc2cc(C(C)(C)C)n[nH]2)cc1Nc1ncnc2c(N)nc(N3CCN4CCCC4C3)nc12 (stereo not shown) [I-34]
46 | 2 | Cc1ccc(C(=O)Nc2cc(C(C)(C)C)n[nH]2)cc1Nc1ncnc2c(N)nc(N3C[C@@H](C)N[C@@H](C)C3)nc12 [I-35]
47 | < 1 | Cc1ccc(C(=O)Nc2cccc(C(F)(F)F)c2)cc1Nc1ncnc2c(N)nc(N3CCN(C)CC3)nc12 [I-55]
48 | < 1 | Cc1ccc(C(=O)Nc2cccc(C(F)(F)F)c2)cc1Nc1ncnc2c(N)nc(N3CCN(C4CCN(C)CC4)CC3)nc12 [I-56]
49 | < 1 | Cc1ccc(C(=O)Nc2cccc(C(F)(F)F)c2)cc1Nc1ncnc2c(N)nc(N3CCN(C4CCCC4)CC3)nc12 [I-57]
50 | 1 | Cc1ccc(C(=O)Nc2cccc(C(F)(F)F)c2)cc1Nc1ncnc2c(N)nc(N3CCCN(C4CC4)CC3)nc12 [I-58]
51 | 1 | Cc1ccc(C(=O)Nc2cccc(C(F)(F)F)c2)cc1Nc1ncnc2c(N)nc(N3CCCNCC3)nc12 [I-59]
52 | < 1 | Cc1ccc(C(=O)Nc2cccc(C(F)(F)F)c2)cc1Nc1ncnc2c(N)nc(N3CCCN(c4ccncc4)CC3)nc12 [I-60]
53 | < 1 | Cc1ccc(C(=O)Nc2cccc(C(F)(F)F)c2)cc1Nc1ncnc2c(N)nc(N3CCN(CC4CCN(C)CC4)CC3)nc12 [I-61]
54 | 2 | Cc1ccc(C(=O)Nc2cccc(C(F)(F)F)c2)cc1Nc1ncnc2c(N)nc(N3CC(C)NC(C)C3)nc12 (stereo not shown) [I-62]
55 | 1 | Cc1ccc(C(=O)Nc2cccc(C(F)(F)F)c2)cc1Nc1ncnc2c(N)nc(N3CCCN(c4ncccn4)CC3)nc12 [I-63]
56 | < 1 | Cc1ccc(C(=O)Nc2cccc(C(F)(F)F)c2)cc1Nc1ncnc2c(N)nc(N3CCN(C(C)C)CC3)nc12 [I-64]
57 | < 1 | Cc1ccc(C(=O)Nc2cccc(C(F)(F)F)c2)cc1Nc1ncnc2c(N)nc(N3C[C@H]4C[C@@H]3CN4C)nc12 [I-65]
58 | < 1 | Cc1ccc(C(=O)Nc2cccc(C(F)(F)F)c2)cc1Nc1ncnc2c(N)nc(N3CCNCC3)nc12 [I-66]
